From EP0206747B1, “1,4-Dihydropyridine derivatives useful in the treatment of cardiovascular disorders, and a process for producing the derivatives” (WARNER-LAMBERT COMPANY, priority 1985, dated 1986)

Test system: Isolated Guinea Pig Atria
Experiment: In vitro myocardial inotropic activity in isolated guinea pig atria
Type: cell-based, guinea pigs
Conditions: @ 10^-5M, isolated guinea pig left atria electrically stimulated at 1.5 Hz, PSS 30°C; for activation at 10 µM: Cavia porcellus, read-out: % Change in Myocardial Contractility (PSCI)
Description: Test for In Vitro Myocardial Inotropic Activity
in Isolated Guinea Pig Atria
Adult male guinea pigs weighing 300-400 g are reserpenized (2000 units i.p.) and, after ten minutes, are killed by cervical dislocation. The hearts are quickly removed and placed in a physiological salt solution (PSS) containing: 118 mM NaCI, 4.8 mM KCI, 2.4 mM CaCI, 1.2 mM MgS04, 1.0 mM NaH2P04, 11.1 m dextrose, and 27.2 mM NaHC03, maintained at pH 7.4 and 30°C. After removing all superficial blood, the hearts are perfused via the aorta to remove any blood from the coronary arteries. After five to ten minutes of perfusion, the left atria are dissected and mounted vertically in a 50 ml, water-jacketed bather containing PSS at 30°C and continuously oxygenated with 95% O2/5% CO2. The left atria are electrically stimulated at 1.5 Hz. The tissues are equilibrated for 30 minutes and washed with fresh PSS. The stimulation voltage is adjusted to 20% above the threshold and tension adjusted to Lmax (the muscle length at which tension development is maximal). The tissues are then equilibrated for an additional 30 minutes, after which the compounds to be examined are added to the tissue bather. […] The compounds are added in full or half-log concentration increments, usually over a concentration range of 1 x 10-^8 to 1 x 10-^4M. The muscles are generally allowed to assume a new steady-state contractile response before each subsequent addition of drug.
Using this procedure the inotropic activity of preferred compounds of the present invention is shown as found in the following Table 1. The reference calcium antagonist has also been tested for comparison.

Compound	activation at 10 µM [%]	% Change in Myocardial Contractility (PSCI)
CCOC(=O)C1=C(CS(=O)(=O)c2ccccc2C)NC(C)=C(C#N)C1c1ccccc1C(F)(F)F (stereo not shown) [Example 3C]	33	
CCOC(=O)C1=C(C[S+]([O-])c2ccccc2)NC(C)=C(C#N)C1c1ccccc1C(F)(F)F (single isomer, unassigned) [Example 2 Isomer B, Ethyl 5-cyano-1,4-dihydro-6-methyl-2-[(phenylsulfinyl)methyl]-4-[2-(trifluoromethyl)phenyl]-3-pyridinecarboxylate]		+53%
CCOC(=O)C1=C(C[S+]([O-])c2ccccc2)NC(C)=C(C#N)C1c1ccccc1C(F)(F)F (single isomer, unassigned) [Example 2 Isomer A, Ethyl 5-cyano-1,4-dihydro-6-methyl-2-[(phenylsulfinyl)methyl]-4-[2-(trifluoromethyl)phenyl]-3-pyridinecarboxylate]	33	
CCOC(=O)C1=C(C[S+]([O-])c2ccccc2)NC(C)=C(C#N)C1c1ccccc1Cl (stereo not shown) [Example 2D]	26	
CCOC(=O)C1=C(CS(=O)(=O)c2ccccc2)NC(C)=C(C#N)C1c1ccccc1C(F)(F)F (stereo not shown) [Example 3A, Ethyl 5-cyano-1,4-dihydro-6-methyl-2-[(phenylsulfonyl)methyl]-4-[2-(trifluoromethyl)phenyl]-3-pyridinecarboxylate]	26	
CCOC(=O)C1=C(CS(=O)(=O)c2ccccc2Cl)NC(C)=C(C#N)C1c1ccccc1C(F)(F)F (stereo not shown) [Example 3D]	33	
CCOC(=O)C1=C(C[S+]([O-])c2ccccc2)NC(C)=C(C#N)C1c1cccc([N+](=O)[O-])c1 (stereo not shown) [Example 2B]	30	
